In brackets after ≈: the same amount, converted by molar mass.
What was measured:
[1] = test system: Pyricularia oryzae; assay: microbe, parasite or virus in culture; assay type: cell-based; settings: 42 h, pH 7, read-out: Minimum inhibitory concentrations
[2] = test system: Candida krusei F-5; assay: MIC by standard serial dilution method on nutrient agar; assay type: cell-based; settings: Pichia kudriavzevii, F5, nutrient agar medium containing 1% glucose (pH 7.0), 27°C, 42 hours, read-out: Minimum inhibitory concentrations
Method: (§1) The minimum inhibitory concentrations (MIC., mcg/ml) of dexylosylbenanomicin A against a variety of fungi were determined by a standard serial dilution method on a nutrient agar medium containing 1% glucose (pH 7.0) after incubation at 27°C for 42 hours and are shown in Table 1 below.

[3] = test system: Pellicularia sasakii; assay: as above; assay type: cell-based; settings: nutrient agar medium containing 1% glucose (pH 7.0), 27°C, 42 hours, read-out: Minimum inhibitory concentrations
Method: as §1

[4] = test system: Saccharomyces cerivisiae F-7; assay: as above; assay type: cell-based; settings: F7, nutrient agar medium containing 1% glucose (pH 7.0), 27°C, 42 hours, read-out: Minimum inhibitory concentrations
Method: as §1

[5] = test system: Candida Yu-1200; assay: as above; assay type: cell-based; settings: YU1200, nutrient agar medium containing 1% glucose (pH 7.0), 27°C, 42 hours, read-out: Minimum inhibitory concentrations
Method: as §1

[6] = test system: Cryptococcus neoformans F-10; assay: as above; assay type: cell-based; settings: F10, nutrient agar medium containing 1% glucose (pH 7.0), 27°C, 42 hours, read-out: Minimum inhibitory concentrations
Method: as §1

[7] = test system: Candida pseudotropicalis F-2; assay: as above; assay type: cell-based; settings: Kluyveromyces marxianus, F2, nutrient agar medium containing 1% glucose (pH 7.0), 27°C, 42 hours, read-out: Minimum inhibitory concentrations
Method: as §1

[8] = test system: Trichophyton asteroides 429; assay: as above; assay type: cell-based; settings: nutrient agar medium containing 1% glucose (pH 7.0), 27°C, 42 hours, read-out: Minimum inhibitory concentrations
Method: as §1

[9] = test system: Candida albicans 3147; assay: as above; assay type: cell-based; settings: nutrient agar medium containing 1% glucose (pH 7.0), 27°C, 42 hours, read-out: Minimum inhibitory concentrations
Method: as §1

[10] = test system: Aspergillus niger F-16; assay: as above; assay type: cell-based; settings: F16, nutrient agar medium containing 1% glucose (pH 7.0), 27°C, 42 hours, read-out: Minimum inhibitory concentrations
Method: as §1

[11] = test system: Trichophyton mentagrophytes (883); assay: as above; assay type: cell-based; settings: nutrient agar medium containing 1% glucose (pH 7.0), 27°C, 42 hours, read-out: Minimum inhibitory concentrations
Method: as §1

[12] = test system: Candida tropicalis F-1; assay: as above; assay type: cell-based; settings: F1, nutrient agar medium containing 1% glucose (pH 7.0), 27°C, 42 hours, read-out: Minimum inhibitory concentrations
Method: as §1

[13] = Solubility in organic solvents
[14] = test system: Xanthomonas citri; assay: MIC by standard serial dilution method on nutrient agar; assay type: cell-based; settings: 42 h, pH 7, read-out: Minimum inhibitory concentrations
[15] = test system: Cochliobolus miyabeanus; assay: as above; assay type: cell-based; settings: Bipolaris oryzae, 42 h, pH 7, read-out: Minimum inhibitory concentrations
[16] = test system: Xanthomonas oryzae; assay: microbe, parasite or virus in culture; assay type: cell-based; settings: 42 h, pH 7, read-out: Minimum inhibitory concentrations
[17] = Acute toxicity in mice upon intravenous administration; assay type: in vivo; settings: ICR mice (female, 4-week old, body weight of 19 to 21 g)
Method: Dexylosylbenanomicin A is of low toxicity to mammals, as it was shown that for estimation of acute toxicity in mice upon intravenous administration, dexylosylbenanomicin A was administered via the intravenous route to ICR mice (female, 4-week old, body weight of 19 to 21 g), the mice tolerated a dosage of 300 mg/kg of this new antibiotic.

Work on `COc1cc(O)c2c(c1)C(=O)c1c(cc3c(c1O)-c1c(cc(C)c(C(=O)N[C@H](C)C(=O)O)c1O)[C@H](O[C@@H]1O[C@H](C)[C@H](O)[C@H](O)[C@H]1O)[C@H]3O)C2=O` [dexylosylbenanomicin A] yielded an MIC [1] of 50 µg/mL (≈ 71.9 µM), an MIC [2] of 50 µg/mL (≈ 71.9 µM) and an MIC [3] of 25 µg/mL (≈ 35.9 µM). For the same molecule, the MIC [4] was 3.13 µg/mL (≈ 4.5 µM), the MIC [5] was 6.25 µg/mL (≈ 8.98 µM) and the MIC [6] was 12.5 µg/mL (≈ 18 µM). The MIC [7] was 3.13 µg/mL (≈ 4.5 µM), the MIC [8] was greater than 25 µg/mL and the MIC [9] was 12.5 µg/mL (≈ 18 µM). It also gave an MIC [10] of 50 µg/mL (≈ 71.9 µM), an MIC [11] greater than 25 µg/mL and an MIC [12] of 12.5 µg/mL (≈ 18 µM). For the same molecule, the Solubility ([13]; in chloroform, ethyl acetate, acetone and methanol) was “Sparingly soluble”, the Solubility ([13]; in dimethyl sulfoxide and N,N-dimethylformamide) was “soluble” and the MIC [14] was greater than 100 µg/mL. For the same molecule, the MIC [15] was greater than 25 µg/mL, the MIC [16] was 100 µg/mL (≈ 144 µM) and the “acute toxicity: tolerated dosage” value [17] was 300 mg/kg.
